The subject of one data set is Vero cells. As to the kind of experiment: Cytotoxicity against Vero cells. The class given is cell-based, African monkey.
Data set [1] concerns National Cancer Institute's 60 cultured human tumor cell lines. In words: NCI 60 human tumor cell line screen. Conditions: mean graph midpoint; concentration of total growth inhibition.
In the next data set the test system is Cryptococcus neoformans. In words: Antimicrobial assay, antifungal. The conditions noted are these: compared to control drug amphotericin B.
In data set [2] the test system is Plasmodium falciparum D6 clone (chloroquine-sensitive). In words: In vitro antimalarial assay. The class given is cell-based. The conditions noted are these: D6, 72 h, read-out: Plasmodium falciparum D6 clone IC50.
In data set [3] the test system is Plasmodium falciparum W2 clone (chloroquine-resistant). In words: In vitro antimalarial assay. In kind it is cell-based. Conditions: W2, 72 h, read-out: Plasmodium falciparum W2 clone IC50.

`C[C@@H]1CC[C@H]2[C@@H](C)C(=O)O[C@@H]3O[C@@]4(C)CC[C@@H]1[C@]32OO4` [Compound 1, Artemisinin, reference compound]: the “Cytotoxicity Vero TC50” value in the data set on Vero cells (African monkey, 48 h) is > 1,686 nM.
As for `C[C@H]1[C@@H](O)O[C@@H]2O[C@@]3(C)CC[C@H]4[C@H](C)CC[C@@H]1[C@@]24OO3` [Compound 2, Dihydroartemisinin, reference compound], the “Cytotoxicity Vero TC50” value in the data set on Vero cells (African monkey, 48 h) is given as 1,407 nM.
Regarding `CC1=CO[C@@H]2O[C@]3(C)CC[C@H]4[C@H](C)CC[C@@H]1[C@@]24OO3` [Compound 3, Anhydrodihydroartemisinin, reference compound], in the data set with Vero cells (African monkey, 48 h), the “Cytotoxicity Vero TC50” value was > 1,787 nM.
Consider `C[C@H]1[C@@H](OCC(=O)CO[C@H]2O[C@@H]3O[C@@]4(C)CC[C@H]5[C@H](C)CC[C@@H]([C@H]2C)[C@@]35OO4)O[C@@H]2O[C@@]3(C)CC[C@H]4[C@H](C)CC[C@@H]1[C@@]24OO3` [Compound 4], for which the “Cytotoxicity Vero TC50” value in the data set with Vero cells (African monkey, 48 h) turned out to be 257 nM.
Take `C[C@H]1[C@@H](OCC(O)CO[C@H]2O[C@@H]3O[C@@]4(C)CC[C@H]5[C@H](C)CC[C@@H]([C@H]2C)[C@@]35OO4)O[C@@H]2O[C@@]3(C)CC[C@H]4[C@H](C)CC[C@@H]1[C@@]24OO3` (stereo partly shown) [Compound 5]: in the data set on Vero cells (African monkey, 48 h), the “Cytotoxicity Vero TC50” value came to 384 nM.
Turning to `C[C@H]1[C@@H](OCc2cc(O)cc(O[C@H]3O[C@@H]4O[C@@]5(C)CC[C@H]6[C@H](C)CC[C@@H]([C@H]3C)[C@@]46OO5)c2)O[C@@H]2O[C@@]3(C)CC[C@H]4[C@H](C)CC[C@@H]1[C@@]24OO3` [Compound 6], the “MG_MID TGI” value in data set [1] stood at 2820 nM. The “Cytotoxicity Vero TC50” value in the data set on Vero cells (African monkey, 48 h) was > 7,075 nM.
On to `C[C@H]1[C@@H](Oc2cccc(N[C@@H]3[C@H](C)O[C@@H]4O[C@@]5(C)CC[C@H]6[C@H](C)CC[C@@H]3[C@@]46OO5)c2)O[C@@H]2O[C@@]3(C)CC[C@H]4[C@H](C)CC[C@@H]1[C@@]24OO3` [Compound 7], for which, in the data set with Cryptococcus neoformans, the “In vitro antifungal activity (in words)” value was “enhanced activity compared to the control drug, amphotericin B”. Further, the “Cytotoxicity Vero TC50” value in the data set with Vero cells (African monkey, 48 h) was > 7,417 nM.
Turning to `C[C@H]1[C@@H](OC/C=C\CO[C@H]2O[C@@H]3O[C@@]4(C)CC[C@H]5[C@H](C)CC[C@@H]([C@H]2C)[C@@]35OO4)O[C@@H]2O[C@@]3(C)CC[C@H]4[C@H](C)CC[C@@H]1[C@@]24OO3` [Compound 8], the “Cytotoxicity Vero TC50” value with Vero cells (African monkey, 48 h) worked out at 709 nM.
Same read-out and setting: the value for `C=C[C@@H](CO[C@H]1O[C@@H]2O[C@@]3(C)CC[C@H]4[C@H](C)CC[C@@H]([C@H]1C)[C@@]24OO3)O[C@H]1O[C@@H]2O[C@@]3(C)CC[C@H]4[C@H](C)CC[C@@H]([C@H]1C)[C@@]24OO3` [Compound 9] was 773 nM; that for `C[C@H]1[C@@H](OCC[C@H](O)CO[C@H]2O[C@@H]3O[C@@]4(C)CC[C@H]5[C@H](C)CC[C@@H]([C@H]2C)[C@@]35OO4)O[C@@H]2O[C@@]3(C)CC[C@H]4[C@H](C)CC[C@@H]1[C@@]24OO3` [Compound 10] was > 7,452 nM.
The same measure, in the same setting: to `C[C@H]1[C@@H](OC[C@@H](O)[C@@H](O)CO[C@H]2O[C@@H]3O[C@@]4(C)CC[C@H]5[C@H](C)CC[C@@H]([C@H]2C)[C@@]35OO4)O[C@@H]2O[C@@]3(C)CC[C@H]4[C@H](C)CC[C@@H]1[C@@]24OO3` [Compound 11] belongs > 7,270 nM.
`C[C@H]1[C@@H](O[C@@H](CO[C@H]2O[C@@H]3O[C@@]4(C)CC[C@H]5[C@H](C)CC[C@@H]([C@H]2C)[C@@]35OO4)[C@H](O)CO)O[C@@H]2O[C@@]3(C)CC[C@H]4[C@H](C)CC[C@@H]1[C@@]24OO3` [Compound 12]: the “In vitro antifungal activity (in words)” value with Cryptococcus neoformans is listed as “enhanced activity compared to the control drug, amphotericin B”. Further, in the data set on Vero cells (African monkey, 48 h), the “Cytotoxicity Vero TC50” value amounted to 825 nM.
On to `C[C@H]1[C@@H](OC[C@@H]2O[C@@H]2CO[C@H]2O[C@@H]3O[C@@]4(C)CC[C@H]5[C@H](C)CC[C@@H]([C@H]2C)[C@@]35OO4)O[C@@H]2O[C@@]3(C)CC[C@H]4[C@H](C)CC[C@@H]1[C@@]24OO3` [Compound 13], for which the “Cytotoxicity Vero TC50” value with Vero cells (African monkey, 48 h) is > 7,475 nM.
On the same count and under the same terms, the value for `C[C@H]1[C@@H](OCC(CO[C@H]2O[C@@H]3O[C@@]4(C)CC[C@H]5[C@H](C)CC[C@@H]([C@H]2C)[C@@]35OO4)OS(C)(=O)=O)O[C@@H]2O[C@@]3(C)CC[C@H]4[C@H](C)CC[C@@H]1[C@@]24OO3` (stereo partly shown) [Compound 14] was 6,403 nM; that for `C[C@H]1[C@@H](OCC(=O)CO)O[C@@H]2O[C@@]3(C)CC[C@H]4[C@H](C)CC[C@@H]1[C@@]24OO3` [Compound 15] was > 13,355 nM.
Still for that read-out and setting: to `C[C@H]1[C@@H](OCc2cc(O)cc(O)c2)O[C@@H]2O[C@@]3(C)CC[C@H]4[C@H](C)CC[C@@H]1[C@@]24OO3` [Compound 16] belongs > 11,711 nM.
For `C[C@H]1[C@@H](OC/C=C\CO)O[C@@H]2O[C@@]3(C)CC[C@H]4[C@H](C)CC[C@@H]1[C@@]24OO3` [Compound 17], the “In vitro antifungal activity (in words)” value in the data set on Cryptococcus neoformans is recorded as “enhanced activity compared to the control drug, amphotericin B”. Moreover, the “Cytotoxicity Vero TC50” value in the data set on Vero cells (African monkey, 48 h) is > 13,430 nM.
With `C[C@H]1[C@@H](OCC[C@@H](CO[C@H]2O[C@@H]3O[C@@]4(C)CC[C@H]5[C@H](C)CC[C@@H]([C@H]2C)[C@@]35OO4)O[C@H]2O[C@@H]3O[C@@]4(C)CC[C@H]5[C@H](C)CC[C@@H]([C@H]2C)[C@@]35OO4)O[C@@H]2O[C@@]3(C)CC[C@H]4[C@H](C)CC[C@@H]1[C@@]24OO3` [Compound 18], in the data set on Vero cells (African monkey, 48 h), the “Cytotoxicity Vero TC50” value is listed as 5,259 nM.
With `CCN(CC)CCCC(C)Nc1ccnc2cc(Cl)ccc12` (stereo not shown) [chloroquine], the IC50 in data set [2] was determined as 41.6 nM; in data set [3], 378 nM. In addition, the “Cytotoxicity Vero TC50” value in the data set on Vero cells (Table 2, concentration toxic to 50% of the cells) was > 14,881 nM.

As a reminder, the IC50 is the concentration that inhibits the measured activity by half.
